From patent US10927098B2, “Hydroxyalkyl-substituted triazole derivatives and uses thereof” (Bayer Pharma Aktiengesellschaft, priority 2016, dated 2021) come the findings set out here.

The target of assay [1] is T1, human V1a receptor (Homo sapiens, UniProt P37288).
T1 construct: expressed in transfected cells; host or cells: CHO K1 (ATCC), also stably transfected with a modified aequorin
Briefly: Cellular in vitro assay for determining vasopressin receptor activity, V1a receptor cell line (aequorin luminescence). The assay is classed as cell-based. The settings on record: for pIC50: CHO cell line transfected with the human V1a receptor, [Arg8]-vasopressin at EC50 concentration, read-out: IC50 hV1a; for ratio IC50 hV2/hV1a: ratio of the IC50 values at human V2 and human V1a receptor. The procedure: (§1) B-1. Cellular In Vitro Assay for Determining Vasopressin Receptor Activity
(§2) The identification of agonists and antagonists of the V1a and V2 vasopressin receptors from humans, rats and dogs as well as the quantification of the activity of the compounds of the invention is carried out using recombinant cell lines. These cell lines originally derive from a hamster's ovary epithelial cell (Chinese Hamster Ovary, CHO K1, ATCC: American Type Culture Collection, Manassas, Va. 20108, USA). The test cell lines constitutively express the human, rat or dog V1a or V2 receptors. In case of the Gαq-coupled V1a receptors, cells are also stably transfected with a modified form of the calcium-sensitive photoproteins aequorin (human and rat V1a) or obelin (dog Via), which, after reconstitution with the cofactor coelenterazine, emit light when there are increases in free calcium concentrations [Rizzuto R, Simpson A W, Brini M, Pozzan T, Nature 358, 325-327 (1992); Illarionov B A, Bondar V S, Illarionova V A, Vysotski E S, Gene 153 (2), 273-274 (1995)]. The resulting vasopressin receptor cells react to stimulation of the recombinantly expressed V1a receptors by intracellular release of calcium ions, which can be quantified by the resulting photoprotein luminescence. The Gs-coupled V2 receptors are stably transfected into cell lines expressing the gene for firefly luciferase under control of a CRE-responsible promoter. Activation of V2 receptors induces the activation of the CRE-responsive promoter via cAMP increase, thereby inducing the expression of firefly luciferase. The light emitted by photoproteins of V1a cell lines as well as the light emitted by firefly luciferase of V2 cell lines corresponds to the activation or inhibition of the respective vasopressin receptor. The bioluminescence of the cell lines is detected using a suitable luminometer [Milligan G, Marshall F, Rees S, Trends in Pharmacological Sciences 17, 235-237 (1996)].
Vasopressin V1a Receptor Cell Lines:
On the day before the assay, the cells are plated out in culture medium (DMEM/F12, 2% FCS, 2 mM glutamine, 10 mM HEPES, 5 μg/ml coelenterazine) in 384-well microtiter plates and kept in a cell incubator (96% humidity, 5% v/v CO2, 37° C.). On the day of the assay, test compounds in various concentrations are placed for 10 minutes in the wells of the microtiter plate before the agonist [Arg^8]-vasopressin at EC50 concentration is added. The resulting light signal is measured immediately in a luminometer.
(§3) Table 1A below lists individual IC50 values for the compounds of the invention (including racemic mixtures as well as separated enantiomers) that were obtained from cell lines transfected with the human V1a or V2 receptor: […]

Assay [2] deals with T2, human V2 receptor (Homo sapiens, UniProt P30518).
T2 construct: expressed in transfected cells; host or cells: CHO K1 (ATCC) expressing firefly luciferase under a CRE-responsive promoter
Kind of assay: Cellular in vitro assay for determining vasopressin receptor activity, V2 receptor cell line (CRE-luciferase). The assay is classed as cell-based. The settings on record: CHO cell line transfected with the human V2 receptor; [Arg8]-vasopressin at EC50 concentration; read-out: IC50 hV2. The procedure: as §1, §2
Vasopressin V2 Receptor Cell Lines:
On the day before the assay, the cells are plated out in culture medium (DMEM/F12, 2% FCS, 2 mM glutamine, 10 mM HEPES) in 384-well microtiter plates and kept in a cell incubator (96% humidity, 5% v/v CO2, 37° C.). On the day of the assay, test compounds in various concentrations and the agonist [Arg^8]-vasopressin at EC50 concentration are added together to the wells, and plates are incubated for 3 hours in a cell incubator. Upon addition of the cell lysis reagent Triton™ and the substrate luciferin, luminescence of firefly luciferase is measured in a luminometer.
as §3

pIC50: −log10 of the molar value.

T1 sequence (P37288 whole entry): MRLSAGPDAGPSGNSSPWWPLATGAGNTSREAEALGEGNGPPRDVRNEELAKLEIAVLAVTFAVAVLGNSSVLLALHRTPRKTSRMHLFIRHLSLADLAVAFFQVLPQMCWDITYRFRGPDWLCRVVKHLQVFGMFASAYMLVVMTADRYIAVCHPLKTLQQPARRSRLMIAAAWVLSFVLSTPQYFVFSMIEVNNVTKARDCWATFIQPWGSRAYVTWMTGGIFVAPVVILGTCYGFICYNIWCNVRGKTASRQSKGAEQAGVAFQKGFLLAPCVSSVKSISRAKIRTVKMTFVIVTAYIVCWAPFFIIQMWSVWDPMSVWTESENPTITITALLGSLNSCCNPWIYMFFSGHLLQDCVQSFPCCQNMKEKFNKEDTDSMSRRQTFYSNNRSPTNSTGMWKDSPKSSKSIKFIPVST
T2 sequence (P30518 whole entry): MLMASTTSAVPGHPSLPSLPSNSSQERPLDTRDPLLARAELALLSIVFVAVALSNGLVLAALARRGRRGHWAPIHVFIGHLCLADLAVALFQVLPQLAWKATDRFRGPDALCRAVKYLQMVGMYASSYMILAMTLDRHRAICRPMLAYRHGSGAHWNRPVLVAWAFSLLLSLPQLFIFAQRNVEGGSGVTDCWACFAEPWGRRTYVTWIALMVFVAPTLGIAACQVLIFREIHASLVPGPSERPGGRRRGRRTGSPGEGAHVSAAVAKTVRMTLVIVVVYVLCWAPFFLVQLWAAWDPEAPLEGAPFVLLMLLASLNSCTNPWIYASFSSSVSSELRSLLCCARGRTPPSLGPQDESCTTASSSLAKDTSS

`CCC(O)c1nc(Cn2nc(-c3ccc(Cl)cc3)n(C[C@H](O)C(F)(F)F)c2=O)nn1-c1ccccc1Cl` (mixture of isomers) [Example 4, 5-(4-Chlorophenyl)-2-{[1-(2-chlorophenyl)-5-(1-hydroxypropyl)-1H-1,2,4-triazol-3-yl]methyl}-4-[(2S)-3,3,3-trifluoro-2-hydroxypropyl]-2,4-dihydro-3H-1,2,4-triazol-3-one]: in assay [1], the pIC50 was 9.15 and the “ratio IC50 hV2/hV1a” value came to 6.7. The pIC50 in assay [2] was 8.33.

Regarding `CC(C)C(O)c1nc(Cn2nc(-c3ccc(Cl)cc3)n(C[C@H](O)C(F)(F)F)c2=O)nn1-c1ccccc1Cl` (mixture of isomers) [Example 7, 5-(4-Chlorophenyl)-2-{[1-(2-chlorophenyl)-5-(1-hydroxy-2-methylpropyl)-1H-1,2,4-triazol-3-yl]methyl}-4-[(2S)-3,3,3-trifluoro-2-hydroxypropyl]-2,4-dihydro-3H-1,2,4-triazol-3-one], in assay [1], the pIC50 is 9.10 and the “ratio IC50 hV2/hV1a” value amounted to 6.4. Moreover, the pIC50 in assay [2] was 8.29.

Take `O=c1n(Cc2nc(C(O)C(F)(F)F)n(-c3cccc(Cl)c3)n2)nc(-c2ccc(Cl)cc2)n1C[C@H](O)C(F)(F)F` (mixture of isomers) [Example 10, 5-(4-Chlorophenyl)-2-{[1-(3-chlorophenyl)-5-(2,2,2-trifluoro-1-hydroxyethyl)-1H-1,2,4-triazol-3-yl]methyl}-4-[(2S)-3,3,3-trifluoro-2-hydroxypropyl]-2,4-dihydro-3H-1,2,4-triazol-3-one]: the pIC50 in assay [1] was 7.87; in assay [2], 8.68. Moreover, the “ratio IC50 hV2/hV1a” value in assay [1] was determined as 0.2.

On to `CC(O)(C(=O)O)c1nc(Cn2nc(-c3ccc(Cl)cc3)n(C[C@H](O)C(F)(F)F)c2=O)nn1-c1ccccc1Cl` (mixture of isomers) [Example 14, 2-[1-(2-Chlorophenyl)-3-({3-(4-chlorophenyl)-5-oxo-4-[(2S)-3,3,3-trifluoro-2-hydroxypropyl]-4,5-dihydro-1H-1,2,4-triazol-1-yl}methyl)-1H-1,2,4-triazol-5-yl]-2-hydroxypropanoic acid], for which, in assay [1], the pIC50 is 7.78 and the “ratio IC50 hV2/hV1a” value amounted to 4.6. Besides, the pIC50 in assay [2] is 7.12.

In the case of `CCC(O)c1nc(Cn2nc(-c3ccc(Cl)cc3)n(C[C@H](O)C(F)(F)F)c2=O)nn1-c1ccccc1Cl` (single isomer, unassigned) [Example 5], in assay [1], the pIC50 is 8.80 and the “ratio IC50 hV2/hV1a” value was determined as 2.6. Moreover, the pIC50 in assay [2] was 8.38.

Regarding `CCC(O)c1nc(Cn2nc(-c3ccc(Cl)cc3)n(C[C@H](O)C(F)(F)F)c2=O)nn1-c1ccccc1Cl` (single isomer, unassigned) [Example 6], in assay [1], the negative-log IC50 (pIC50) was 9.15 and the “ratio IC50 hV2/hV1a” value is given as 12.0. Also, the pIC50 in assay [2] is 8.08.

On to `CC(C)C(O)c1nc(Cn2nc(-c3ccc(Cl)cc3)n(C[C@H](O)C(F)(F)F)c2=O)nn1-c1ccccc1Cl` (single isomer, unassigned) [Example 8], for which, in assay [1], the pIC50 was 9.22 and the “ratio IC50 hV2/hV1a” value came to 3.7. Also, the negative-log IC50 (pIC50) in assay [2] was 8.66.

Consider `CC(C)C(O)c1nc(Cn2nc(-c3ccc(Cl)cc3)n(C[C@H](O)C(F)(F)F)c2=O)nn1-c1ccccc1Cl` (single isomer, unassigned) [Example 9], for which, in assay [1], the negative logarithm of the IC50 (pIC50) is 9.05 and the “ratio IC50 hV2/hV1a” value was found to be 28.2. In addition, the pIC50 in assay [2] is 7.60.

Turning to `O=c1n(Cc2nc(C(O)C(F)(F)F)n(-c3cccc(Cl)c3)n2)nc(-c2ccc(Cl)cc2)n1C[C@H](O)C(F)(F)F` (single isomer, unassigned) [Example 11], the figures for the pIC50 in assay [1] and in assay [2] were 7.83 and 8.74, respectively. Further, in assay [1], the “ratio IC50 hV2/hV1a” value is reported as 0.1.

With `O=c1n(Cc2nc(C(O)C(F)(F)F)n(-c3cccc(Cl)c3)n2)nc(-c2ccc(Cl)cc2)n1C[C@H](O)C(F)(F)F` (single isomer, unassigned) [Example 12], the pIC50 in assay [1] is 8.66; in assay [2], 7.46. For the same compound, in assay [1], the “ratio IC50 hV2/hV1a” value is listed as 15.8.

With `CC(O)(C(=O)O)c1nc(Cn2nc(-c3ccc(Cl)cc3)n(C[C@H](O)C(F)(F)F)c2=O)nn1-c1ccccc1Cl` (single isomer, unassigned) [Example 15], in assay [1], the pIC50 was 8.46 and the “ratio IC50 hV2/hV1a” value came to 7.6. In assay [2], the pIC50 is 7.58.

With `CC(O)(C(=O)O)c1nc(Cn2nc(-c3ccc(Cl)cc3)n(C[C@H](O)C(F)(F)F)c2=O)nn1-c1ccccc1Cl` (single isomer, unassigned) [Example 16], in assay [1], the pIC50 is 8.26 and the “ratio IC50 hV2/hV1a” value is listed as 45.8. In addition, the pIC50 in assay [2] is 6.60.

Turning to `CC(C)(O)c1nc(Cn2nc(-c3ccc(Cl)cc3)n(C[C@H](O)C(F)(F)F)c2=O)nn1-c1cccc(F)c1` [Example 1, 5-(4-Chlorophenyl)-2-{[1-(3-fluorophenyl)-5-(2-hydroxypropan-2-yl)-1H-1,2,4-triazol-3-yl]methyl}-4-[(2S)-3,3,3-trifluoro-2-hydroxypropyl]-2,4-dihydro-3H-1,2,4-triazol-3-one], in assay [1], the negative-log IC50 (pIC50) is 8.18 and the “ratio IC50 hV2/hV1a” value was found to be 3.8. Also, in assay [2], the pIC50 is 7.60.

With `CC(C)(O)c1nc(Cn2nc(-c3ccc(Cl)cc3)n(C[C@H](O)C(F)(F)F)c2=O)nn1-c1cccc(Cl)c1` [Example 2, 5-(4-Chlorophenyl)-2-{[1-(3-chlorophenyl)-5-(2-hydroxypropan-2-yl)-1H-1,2,4-triazol-3-yl]methyl}-4-[(2S)-3,3,3-trifluoro-2-hydroxypropyl]-2,4-dihydro-3H-1,2,4-triazol-3-one], in assay [1], the pIC50 was 7.66 and the “ratio IC50 hV2/hV1a” value is 0.2. For the same compound, the pIC50 in assay [2] is 8.48.

In the case of `COc1ccccc1-n1nc(Cn2nc(-c3ccc(Cl)cc3)n(C[C@H](O)C(F)(F)F)c2=O)nc1C(C)(C)O` [Example 3, 5-(4-Chlorophenyl)-2-{[5-(2-hydroxypropan-2-yl)-1-(2-methoxyphenyl)-1H-1,2,4-triazol-3-yl]methyl}-4-[(2S)-3,3,3-trifluoro-2-hydroxypropyl]-2,4-dihydro-3H-1,2,4-triazol-3-one], in assay [1], the negative-log IC50 (pIC50) was 9.10 and the “ratio IC50 hV2/hV1a” value was 2.4. The pIC50 in assay [2] was 8.72.

As to `CC(C)(O)c1nc(Cn2nc(-c3ccc(Cl)cc3)n(C[C@H](O)C(F)(F)F)c2=O)nn1-c1ccccc1Cl` [Example 13, 5-(4-Chlorophenyl)-2-{[1-(2-chlorophenyl)-5-(2-hydroxypropan-2-yl)-1H-1,2,4-triazol-3-yl]methyl}-4-[(2S)-3,3,3-trifluoro-2-hydroxypropyl]-2,4-dihydro-3H-1,2,4-triazol-3-one], the pIC50 in assay [1] was 8.68; in assay [2] it was 8.16. The “ratio IC50 hV2/hV1a” value in assay [1] is 3.3.
